# Measured values from ChEMBL document CHEMBL5512619, “Anticancer mechanism of coumarin-based derivatives” (Eur J Med Chem, 2024).
# Assays:
# A549 [1] = experiment: Antiproliferative activity against human A549 cells incubated for 48 hrs by MTT assay; assay type: functional, cell-based; conditions: A549, 48 h
# HeLa [2] = experiment: Antiproliferative activity against human HeLa cells incubated for 48 hrs by MTT assay; assay type: functional, cell-based
# [3] = molecular target: T1, Vascular endothelial growth factor receptor 2 (Homo sapiens, UniProt P35968); experiment: Inhibition of human VEGFR2
# MDA-MB-231 [4] = experiment: Inhibition of cell invasion in human MDA-MB-231 cells at 100 uM measured after 24 hrs by crystal violet staining based microscopy analysis relative to control; assay type: functional
# HepG2 [5] = experiment: Antiproliferative activity against human HepG2 cells measured after 72 hrs by SRB method; assay type: functional, cell-based; conditions: HepG2, 72 h
# HeLa [6] = experiment: Antiproliferative activity against human HeLa cells measured after 72 hrs by SRB method; assay type: functional, cell-based
# MCF7 [7] = experiment: Antiproliferative activity against human MCF7 cells measured after 72 hrs by SRB method; assay type: functional, cell-based; conditions: MCF7, 72 h
# HCT-116 [8] = experiment: cells; conditions: Homo sapiens, HCT-116, 72 h
# Description: Antiproliferative activity against human HCT-116 cells measured after 72 hrs by SRB method
# SK-OV-3 = experiment: Antiproliferative activity against human SK-OV-3 cells measured after 21 hrs by MTT assay; assay type: functional, cell-based; conditions: SK-OV-3, 21 h
# [9] = molecular target: T1, Vascular endothelial growth factor receptor 2; experiment: Inhibition of VEGFR2 (unknown origin)
# [10] = Inhibition of DNA topoisomerase II (unknown origin)
# MCF7 [11] = experiment: Cytotoxicity against human MCF-7 cells; assay type: functional, cell-based
# MCF7 [12] = experiment: Cytotoxicity against human MCF-7 cells relative to control; assay type: functional
# HeLa [13] = experiment: Antiproliferative activity against human HeLa cells; assay type: functional, cell-based
# Caco-2 = experiment: Antiproliferative activity against human Caco-2 cells measured after 72 hrs in presence of paclitaxel by SRB method; assay type: functional, cell-based; conditions: Caco-2, 72 h
# HCT-116 [14] = experiment: Antiproliferative activity against human HCT-116 cells measured after 72 hrs in presence of paclitaxel by SRB method; assay type: functional, cell-based; conditions: HCT-116, 72 h
# CCRF-CEM = experiment: Antiproliferative activity against human CCRF-CEM cells assessed as reduction in cell viability measured after 24 hrs by MTT assay relative to control; assay type: functional; conditions: pooled result: one value given for 6 cell lines, strains, targets or settings
# RT-4 = experiment: Cytotoxicity against human RT-4 cells assessed as inhibition of cell growth; assay type: functional, cell-based
# LCLC-103H cell line = experiment: Cytotoxicity against human LCLC-103H cell line assessed as inhibition of cell growth; assay type: functional, cell-based
# A-427 = experiment: Cytotoxicity against human A-427 cells assessed as inhibition of cell growth; assay type: functional, cell-based
# HepG2 [15] = experiment: Antiproliferative activity against human HepG2 cells measured after 24 hrs by MTT assay; assay type: functional, cell-based; conditions: HepG2, 24 h
# HCT-116 [16] = experiment: Antiproliferative activity against human HCT-116 cells measured after 24 hrs by MTT assay; assay type: functional, cell-based; conditions: HCT-116, 24 h
# A549 [17] = experiment: Antiproliferative activity against human A549 cells measured after 24 hrs by MTT assay; assay type: functional, cell-based; conditions: A549, 24 h
# MCF7 [18] = experiment: Antiproliferative activity against human MCF7 cells measured after 72 hrs by MTT assay; assay type: functional, cell-based; conditions: MCF7, 72 h
# Steryl-sulfatase = Steryl-sulfatase (Homo sapiens, UniProt P08842); experiment: Inhibition of STS in human placental microsome; assay type: microsomes
# HepG2 [19] = experiment: Induction of apoptosis in human HepG2 cells at 2 times IC50 incubated for 24 hrs by annexin V-FITC and PI staining based flow cytometry analysis relative to control; assay type: functional
# SK-LU-1 = experiment: Cytotoxicity against human SK-LU-1 cells incubated for 2 days by Neutral Red staining based assay; assay type: functional, cell-based; conditions: SK-LU-1, 48 h
# [20] = Cytotoxicity against African green monkey Vero cells incubated for 2 days by Neutral Red staining based assay; assay type: toxicity, cell-based, Chlorocebus sabaeus
# HepG2 [21] = experiment: Cytotoxicity against human HepG2 cells incubated for 2 days by Neutral Red staining based assay; assay type: functional, cell-based; conditions: HepG2, 48 h
# HepG2 [22] = experiment: Induction of apoptosis in human HepG2 cells assessed as necrotic cells at 2 times IC50 incubated for 24 hrs by annexin V-FITC and PI staining based flow cytometry analysis relative to control; assay type: functional
# HepG2 [23] = experiment: Induction of apoptosis in human HepG2 cells assessed as necrotic cells at 1 time IC50 incubated for 24 hrs by annexin V-FITC and PI staining based flow cytometry analysis relative to control; assay type: functional
# HCT-116 [24] = experiment: Cytotoxicity against human HCT-116 cells incubated for 2 days by Neutral Red staining based assay; assay type: functional, cell-based; conditions: HCT-116, 48 h
# HepG2 [25] = experiment: Induction of apoptosis in human HepG2 cells assessed as necrotic cells at 1 time IC50 incubated for 12 hrs by annexin V-FITC and PI staining based flow cytometry analysis relative to control; assay type: functional
# HepG2 [26] = experiment: Induction of apoptosis in human HepG2 cells at 1 time IC50 incubated for 24 hrs by annexin V-FITC and PI staining based flow cytometry analysis relative to control; assay type: functional
# HepG2 [27] = experiment: Induction of apoptosis in human HepG2 cells assessed as necrotic cells at 2 times IC50 incubated for 12 hrs by annexin V-FITC and PI staining based flow cytometry analysis relative to control; assay type: functional
# T98G = experiment: Induction of apoptosis in human T98G cells relative to control; assay type: functional
# MDA-MB-231 [28] = experiment: Antiproliferative activity against human MDA-MB-231 cells incubated for 96 hrs by MTT assay; conditions: MDA-MB-231, 96 h
# HeLa [29] = experiment: Antiproliferative activity against human HeLa cells incubated for 24 hrs by MTT assay; assay type: functional, cell-based
# T1 sequence (P35968 whole entry): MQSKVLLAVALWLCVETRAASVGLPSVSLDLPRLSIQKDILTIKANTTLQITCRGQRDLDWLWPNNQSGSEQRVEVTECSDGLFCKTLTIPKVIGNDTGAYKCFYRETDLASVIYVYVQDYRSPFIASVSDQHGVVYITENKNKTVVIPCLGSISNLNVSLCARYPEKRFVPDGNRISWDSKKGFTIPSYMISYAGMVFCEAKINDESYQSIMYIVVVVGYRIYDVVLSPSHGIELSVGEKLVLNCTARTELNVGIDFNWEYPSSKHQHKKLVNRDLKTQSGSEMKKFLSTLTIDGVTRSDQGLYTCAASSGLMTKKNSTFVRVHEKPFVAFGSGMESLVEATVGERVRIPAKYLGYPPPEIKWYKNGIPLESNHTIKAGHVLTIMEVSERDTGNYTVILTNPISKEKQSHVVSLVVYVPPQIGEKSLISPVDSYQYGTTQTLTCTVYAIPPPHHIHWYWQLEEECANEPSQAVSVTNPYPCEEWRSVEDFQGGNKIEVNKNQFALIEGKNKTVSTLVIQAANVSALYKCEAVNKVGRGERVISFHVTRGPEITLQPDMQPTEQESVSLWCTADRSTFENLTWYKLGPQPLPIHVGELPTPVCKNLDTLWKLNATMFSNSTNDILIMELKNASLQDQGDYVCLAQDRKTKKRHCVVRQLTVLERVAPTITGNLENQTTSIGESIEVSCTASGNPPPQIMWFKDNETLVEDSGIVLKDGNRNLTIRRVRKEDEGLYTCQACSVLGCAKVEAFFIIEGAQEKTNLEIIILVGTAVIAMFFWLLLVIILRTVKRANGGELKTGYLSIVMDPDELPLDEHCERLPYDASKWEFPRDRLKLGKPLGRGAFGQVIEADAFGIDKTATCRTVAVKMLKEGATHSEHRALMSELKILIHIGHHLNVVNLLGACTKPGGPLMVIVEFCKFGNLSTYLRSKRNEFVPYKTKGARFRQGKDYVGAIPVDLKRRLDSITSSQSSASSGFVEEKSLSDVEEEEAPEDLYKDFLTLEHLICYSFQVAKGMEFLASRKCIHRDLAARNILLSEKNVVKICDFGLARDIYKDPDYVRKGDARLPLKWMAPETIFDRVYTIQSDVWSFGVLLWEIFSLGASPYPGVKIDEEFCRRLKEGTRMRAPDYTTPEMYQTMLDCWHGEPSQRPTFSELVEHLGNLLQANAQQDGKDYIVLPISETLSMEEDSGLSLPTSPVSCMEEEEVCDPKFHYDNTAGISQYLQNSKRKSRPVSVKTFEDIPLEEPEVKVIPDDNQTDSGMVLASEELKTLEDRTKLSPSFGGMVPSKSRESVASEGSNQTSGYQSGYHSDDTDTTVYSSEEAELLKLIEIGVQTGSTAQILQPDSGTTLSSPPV
# Steryl-sulfatase, sequence (P08842 whole entry): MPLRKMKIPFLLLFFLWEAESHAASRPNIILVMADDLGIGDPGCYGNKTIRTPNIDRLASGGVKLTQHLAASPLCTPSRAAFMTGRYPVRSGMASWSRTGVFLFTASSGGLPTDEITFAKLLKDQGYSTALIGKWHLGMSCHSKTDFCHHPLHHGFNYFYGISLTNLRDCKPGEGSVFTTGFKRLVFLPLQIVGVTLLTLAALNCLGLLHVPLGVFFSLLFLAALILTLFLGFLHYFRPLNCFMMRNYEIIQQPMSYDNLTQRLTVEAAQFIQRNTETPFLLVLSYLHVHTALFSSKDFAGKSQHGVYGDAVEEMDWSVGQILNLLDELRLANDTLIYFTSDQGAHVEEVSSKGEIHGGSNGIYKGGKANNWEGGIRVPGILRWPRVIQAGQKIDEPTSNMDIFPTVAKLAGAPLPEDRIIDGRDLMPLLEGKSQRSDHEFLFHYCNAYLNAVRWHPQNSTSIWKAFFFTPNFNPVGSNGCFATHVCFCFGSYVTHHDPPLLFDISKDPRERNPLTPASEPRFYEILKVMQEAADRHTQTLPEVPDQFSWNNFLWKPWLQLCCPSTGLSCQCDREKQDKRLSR
smiles,measurement,setting,value
COc1ccc2oc(=O)cc(COc3c(C)occc3=O)c2c1,IC50,A549 [1],2470 nM
same,IC50,HeLa [2],2470 nM
Cc1nc(N2N=C(c3cc4ccccc4oc3=O)CC2c2ccc(N(C)C)cc2)sc1/N=N/c1ccc(Cl)cc1 (centres undefined),IC50,[3],34 nM
COc1ccc2ccc(=O)oc2c1CC=C(C)C [OSTHOLE],inhibition at 100 µM,MDA-MB-231 [4],97.6%
Cc1c2c3c(ccc(C)c3oc1=O)[C@](C)(O)CO2,IC50,HepG2 [5],3950 nM
same,IC50,HeLa [6],3950 nM
same,IC50,MCF7 [7],3950 nM
same,IC50,HCT-116 [8],3950 nM
CC(C)(O[C@@H]1O[C@H](CO)[C@@H](O)[C@H](O)[C@H]1O)[C@H]1Cc2cc3ccc(=O)oc3cc2O1 [NODAKENIN],IC50,SK-OV-3,> 100000 nM
O=c1ccc2ccc(O[C@@H]3O[C@H](CO)[C@@H](O)[C@H](O)[C@H]3O)cc2o1 [SKIMMIN],IC50,SK-OV-3,> 100000 nM
COC(=O)C(CCSC)NC(=O)CCNC(=O)c1cc2ccccc2oc1=O (centres undefined),IC50,[9],23600 nM
same,IC50,[10],4100 nM
same,IC50,MCF7 [11],5850 nM
same,Activity,MCF7 [12],97.35%
Cc1c(C(C)C)c(=O)oc2cc(O)cc(O)c12,IC50,HeLa [13],8000 nM
COc1cc(C)c2oc(=O)c(C)c3c2c1[C@@H](C)CO3,IC50,HepG2 [5],740 nM
same,IC50,Caco-2,130 nM
same,IC50,HeLa [6],740 nM
same,IC50,HCT-116 [14],5.1 nM
same,IC50,MCF7 [7],740 nM
same,IC50,HCT-116 [8],740 nM
O=C(COc1ccccc1)Nc1ccc2oc(=O)ccc2c1,Activity,CCRF-CEM,61%
CCN(CC)c1ccc2cc(-c3nc4ccccc4o3)c(=N)oc2c1,IC50,RT-4,< 10 nM
same,IC50,LCLC-103H cell line,< 10 nM
same,IC50,A-427,< 10 nM
COc1ccc(-c2cc(-c3cc4ccccc4oc3=O)nc(NC(C)=O)c2C#N)cc1,IC50,HepG2 [15],1100 nM
same,IC50,HCT-116 [16],1100 nM
same,IC50,A549 [17],1100 nM
O=c1ccc2cc(O)c(O)cc2o1 [ESCULETIN],IC50,MCF7 [18],193000 nM
CCCCCCc1c(C)c2ccc(OS(N)(=O)=O)cc2oc1=O,IC50,Steryl-sulfatase,8 nM
C=CC(C)(C)c1cc2c(O)c3c(c(C(C)(C)C=C)c2oc1=O)OC(C)(C)C=C3 [CLAUSARIN],Activity,HepG2 [19],64.2%
same,IC50,SK-LU-1,6900 nM
same,IC50 at 2 days,[20],78200 nM
same,IC50,HepG2 [21],7600 nM
same,Activity,HepG2 [22],2.7%
same,Activity,HepG2 [23],1.6%
same,IC50,HCT-116 [24],44600 nM
same,Activity,HepG2 [25],6.8%
same,Activity,HepG2 [26],49.7%
same,Activity,HepG2 [27],27.4%
O=c1cc(O)c2ccccc2o1 [4-HYDROXYCOUMARINS],Activity,T98G,15%
same,IC50,MDA-MB-231 [28],> 100000 nM
COc1c2c(cc3oc(=O)ccc13)OC(C)(C)C=C2 [XANTHOXYLETIN],Activity,HepG2 [25],2.5%
same,Activity,HepG2 [27],2.9%
COc1ccc(-c2cc(-c3cc4ccccc4oc3=O)nc(N)c2C(N)=O)cc1,IC50,HepG2 [15],1100 nM
same,IC50,HCT-116 [16],1100 nM
same,IC50,A549 [17],1100 nM
CC(C)=CC[C@@H](OCCc1ccc(C(=O)/N=C/c2c(Cl)c3ccccc3oc2=O)cc1)C1=CC(=O)c2c(O)ccc(O)c2C1=O,IC50,HeLa [29],3250 nM
COc1cc2oc(=O)ccc2cc1O[C@@H]1O[C@H](CO)[C@@H](O)[C@H](O)[C@H]1O,IC50,SK-OV-3,> 100000 nM
